Reference: publication PMC4490465 (2015)

Tests used:
[1] = test system: Cognate DNA sequence (DNA, hairpin) CGCATATGGTATGTGCCGCGGAAAAACCGCGGCACATACCATATGCG; assay: SPR, steady state, 1:1 fit; settings: HBS-EP + 0.1% DMSO, pH 7.4, 25 °C
[2] = test system: 3 bp mismatch (DNA, hairpin) CAGTCATGAGCATGGATGCGGAAAAACCGCATCCATGCTCATGACTG; assay: SPR, steady state, 1:1 fit; settings: HBS-EP + 0.1% DMSO, pH 7.4, 25 °C

| Kd [1] | Kd [2] | Kd ([1]; apparent) | Compound |
| --- | --- | --- | --- |
| 1.6 ± 0.1 nM | 314 ± 160 nM |  | CC(=O)Nc1cn(C)c(C(=O)Nc2cn(C)c(C(=O)Nc3cc(C(=O)Nc4cc(C(=O)NCCCC(=O)Nc5cc(C(=O)Nc6cc(C(=O)Nc7cc(C(=O)Nc8cc(C(=O)NCCC(=O)NCCCN(C)C)n(C)c8)n(C)c7)n(C)c6)n(C)c5)n(C)c4)n(C)c3)n2)n1 |
|  |  | 9.3 ± 1.6 nM | CN(C)CCCNC(=O)CCNC(=O)c1cc(NC(=O)c2cc(NC(=O)c3cc(NC(=O)c4cc(NC(=O)CCCNC(=O)c5cc(NC(=O)c6cc(NC(=O)c7nc(NC(=O)c8nc(NC(=O)CCOCCOCCOCCNC(=O)[C@@H](N)CSSC(C)(C)C)cn8C)cn7C)cn6C)cn5C)cn4C)cn3C)cn2C)cn1C |
